What was measured:
HAase = assay: In vitro HAase-mediated TRAIL release and CD spectra; assay type: physicochemical; details: TRAIL released from Gelipo versus native TRAIL
Method: 500 μL of rhodamine-labeled TRAIL-loaded Gelipo (r-TRAIL-Gelipo) was incubated with 500 μL of HAase (1 mg/mL) at pH 6.5 in a 37° C. water bath. At prearranged time intervals, free r-TRAIL in the filtrate was harvested using centrifugal filters (30K MWCO) (Millipore). The fluorescence intensity of r-TRAIL was determined at 585 nm with an excitation wavelength of 552 nm by a microplate reader (Infinite M200 PRO, Tecan). Additionally, the far-UV CD spectra of the native TRAIL and the released TRAIL from TRAIL Gelipo were obtained using a Circular Dichroism Spectrometer (Aviv).

MDA-MB-231 cells = assay: Cell apoptosis assay (Annexin V-FITC, TUNEL), Example 2; assay type: cell-based, human; details: 12 h
Method: Apoptosis of MDA-MB-231 cells was detected using the Annexin V-FITC Apoptosis Detection Kit (BD Biosciences) and APO-BrdU TUNEL Assay Kit (Life Technologies), respectively. The cells (1×10^5 cells/well) were seeded in 6-well plates and cultured for 48 h. For Annexin V-FITC assay, the cells were incubated with different formulations for 12 h, including free TRAIL (2 or 20 ng/mL), TRAIL-Gelipo (20 ng/mL) with or without HAase-treatment, Dox-R8H3-L (100 ng/mL), TRAIL/Dox-Gelipo (2 ng/mL TRAIL, 100 ng/mL Dox) with HAase-treatment. For TUNEL assay, the cells were incubated with free TRAIL (2 ng/mL), Dox-R8H3-L (100 ng/mL) and TRAIL/Dox-Gelipo (2 ng/mL TRAIL, 100 ng/mL Dox) with HAase-treatment for 20 h, respectively. The following procedures were performed in accordance with the manufacturers' protocols. Finally, for Annexin V-FITC assay, the cells were analyzed by flow cytometry (BD FACSCalibur), while for TUNEL assay, the cells were observed by fluorescence microscope (IX71, Olympus).

[1] = system: MDA-MB-231 tumor xenograft; assay: In vivo antitumor efficacy of Gelipo formulations; details: i.v. 2 mg/kg Dox every other day for 12 days
Method: All animals were treated in accordance with the Guide for Care and Use of Laboratory Animals, approved by local committee. The female nude mice were subcutaneously inoculated in the back with MDA-MB-231 cells (1×10^7 cells/mouse) for the construction of the tumor xenograft model. The tumor size was monitored by a fine caliper and the tumor volume (V) was calculated as V=L×W^2/2, where L and W were the length and width of the tumor, respectively.
When the tumor volume reached to 50 mm^3, the mice were weighed, randomly divided into 4 groups, and intravenously administrated with the Dox solution (2 mg/kg), Dox-Gelipo (2 mg/kg), Dox/TRAIL-Gelipo (2 mg/kg Dox, 0.04 mg/kg TRAIL) and saline every other day for 12 days. The tumor size and body weight of the mice were measured at the meantime. At Day 14, the tumor were harvested from the mice after euthanasia, washed by saline thrice and then fixed in 10% neutral buffered formalin (NBF). For HE staining, formalin-fixed tumors were embedded in paraffin blocks and visualized by optical microscope (DM5500B, Leica). For TUNEL apoptosis staining, the fixed tumor sections were stained by the In Situ Cell Death Detection Kit (Roche Applied Science) according to the manufacturer's protocol. Hoechst 33342 was used for nuclear nuclear counterstaining. The stained tumor slides were observed by fluorescence microscope (IX71, Olympus).

[2] = 20 ng/mL TRAIL, Annexin V-FITC/PI

Row | Compound | Secondary structure of released TRAIL (CD spectrum) (HAase) | Apoptosis ratio (MDA-MB-231 cells; 2 ng/mL TRAIL) | Apoptosis ratio (MDA-MB-231 cells; [2]) | Viability (MDA-MB-231 cells; [2]) | Tumor growth compared with saline [1]
1 | free TRAIL: His-ILZ-TRAIL (residues 114-281) produced in E. coli; TNF-related apoptosis-inducing ligand | no noticeable conformational changes in the secondary structure | 36.48% | 51.71% | 32.30% | –
2 | COc1cccc2c1C(=O)c1c(O)c3c(c(O)c1C2=O)C[C@@](O)(C(=O)CO)C[C@@H]3O[C@H]1C[C@H](N)[C@H](O)[C@H](C)O1 [Dox solution, doxorubicin] | – | – | – | – | remarkably suppressed

From patent US9919002B2, “Methods and constructs for compound delivery” (North Carolina State University, priority 2013, dated 2018)
